Assays:
[1] = Pharmacokinetics of Compound I after single and multiple oral doses of solid dispersion tablets; format: in vivo, human; conditions: for half-life: t1/2
Protocol: The Compound I formulation is prepared as described above by combining Compound I amorphous free base in a 1:1 ratio by mass with copovidone, which is all dissolved in ethanol and spray dried to produce the Compound I solid dispersion. The Compound I solid dispersion is then mixed with various excipients in a dry granulation process to produce tablets that are film coated prior to packaging.
5 mg, 25 mg, 50 mg, and 100 mg tablet formulations were prepared according to Tables 1A and 1B).

[2] = Spray dry feed solution and solid dispersion evaluation (solubility, stability); format: physicochemical
Protocol: The spray dry feed solution was prepared by solubilizing Compound I and polymer in the feed solvent. In certain cases, aggressive mixing or homogenization can be used to avoid clumping of the composition.
Different polymers were tested for preferred characteristics in the solid dispersions.
The feed solution was initially evaluated for appropriate solvent with regard to solubility, stability, and viscosity. […] Ethanol and methanol-based feed stocks were assessed for preparation ease and spray dried at a range of inlet and outlet temperatures to assess the robustness of the spray dry process. Both solvents gave rapid dissolution of Compound I and copovidone.

[3] = system: HCV infection of genotypes 1 to 6; conditions: cited from earlier work
[4] = Food effect on Compound I pharmacokinetics (fed vs fasted, light or high-fat breakfast); format: in vivo, human; conditions: for AUCinf % GLSM Ratio (Fed/Fasted) / AUClast % GLSM Ratio (Fed/Fasted) / Cmax % GLSM Ratio (Fed/Fasted) / Cmax / AUC(0-inf) / AUC(0-t): 100 mg; for Cmax / AUC(0-inf) / AUC(0-t): human, plasma, oral, N = 12; for AUC(0-inf): read-out: AUCinf GLSM; for AUC(0-t): read-out: AUClast GLSM
[5] = high-fat/high-calorie breakfast vs fasted
[6] = 100 mg fasted, high-fat breakfast cohort (Cohort 6)
[7] = 100 mg fasted, light breakfast cohort (Cohort 5)

**Q.** What does the source list for `COC[C@H]1C[C@@H](c2ncc(-c3ccc4c(c3)COc3cc5c(ccc6nc([C@@H]7CC[C@H](C)N7C(=O)[C@@H](NC(=O)OC)C(C)C)[nH]c65)cc3-4)[nH]2)N(C(=O)[C@H](NC(=O)OC)c2ccccc2)C1` [Compound I, Methyl {(2S)-1-[(2S,5S)-2-(9-{2-[(2S,4S)-1-{(2R)-2-[(methoxycarbonyl)amino]-2-phenylacetyl}-4-(methoxymethyl)pyrrolidin-2-yl]-1H-imidazol-5-yl}-1,11-dihydroisochromeno[4′,3′:6,7]naphtho[1,2-d]imidazol-2-yl)-5-methylpyrrolidin-1-yl]-3-methyl-1-oxobutan-2-yl}carbamate]?
**A.** dose proportionality of exposure (AUC and Cmax) ([1]; human, in vivo): nonlinear PK; AUC(0-inf) ([1]; human, in vivo, 5 mg): 159 ng·h/mL; AUC(0-t) ([1]; human, in vivo, 5 mg): 134 ng·h/mL; CL/F ([1]; human, in vivo, 5 mg): 58,398.0 mL/h; Cmax ([1]; human, in vivo, 5 mg): 22.4 ng/mL; Tmax ([1]; human, in vivo, 5 mg, Tmax): 1.5 h; half-life ([1]; human, in vivo, 5 mg): 11.2 h; AUC(0-inf) ([1]; human, in vivo, 50 mg): 3020 ng·h/mL; AUC(0-t) ([1]; human, in vivo, 50 mg): 2970 ng·h/mL; CL/F ([1]; human, in vivo, 50 mg): 19,188.4 mL/h; Cmax ([1]; human, in vivo, 50 mg): 371 ng/mL; Tmax ([1]; human, in vivo, 50 mg, Tmax): 2.5 h; half-life ([1]; human, in vivo, 50 mg): 13.6 h; AUC(0-inf) ([1]; human, in vivo, 100 mg): 5060 ng·h/mL; AUC(0-t) ([1]; human, in vivo, 100 mg): 4990 ng·h/mL; CL/F ([1]; human, in vivo, 100 mg): 24,617.9 mL/h; Cmax ([1]; human, in vivo, 100 mg): 575 ng/mL; Tmax ([1]; human, in vivo, 100 mg, Tmax): 2.5 h; half-life ([1]; human, in vivo, 100 mg): 15.7 h; AUC(0-inf) ([1]; human, in vivo, 150 mg): 4980 ng·h/mL; AUC(0-t) ([1]; human, in vivo, 150 mg): 4930 ng·h/mL; Cmax ([1]; human, in vivo, 150 mg): 608 ng/mL; Tmax ([1]; human, in vivo, 150 mg, Tmax): 2.75 h; half-life ([1]; human, in vivo, 150 mg): 16.2 h; AUC(0-inf) ([1]; human, in vivo, 450 mg): 9580 ng·h/mL; AUC(0-t) ([1]; human, in vivo, 450 mg): 9500 ng·h/mL; CL/F ([1]; human, in vivo, 450 mg): 53,676.4 mL/h; Cmax ([1]; human, in vivo, 450 mg): 1120 ng/mL; Tmax ([1]; human, in vivo, 450 mg, Tmax): 3.25 h; half-life ([1]; human, in vivo, 450 mg): 15 h; Tmax ([1]; human, in vivo, po, median Tmax (time of maximum plasma concentrations)): 1.5 to 3.25 h; mean plasma concentrations at 24 hours postdose relative to protein-adjusted EC50 for genotype 1 to 6 HCV replicons ([1]; multiple once-daily doses greater than 5 mg): above the protein-adjusted concentration of a compound inhibiting virus replication by 50% (EC50); solubility in feed solvent ([2]; ethanol, methanol, acetone, and dichloromethane (DCM)): excellent solubility; chemical stability in feed solution ([2]; ethanolic feed solution): good chemical stability; anti-HCV activity [3]: potent anti-HCV activity; AUCinf % GLSM Ratio (Fed/Fasted) ([4]; high-fat breakfast): 86.30%; AUClast % GLSM Ratio (Fed/Fasted) ([4]; high-fat breakfast): 86.02%; Cmax % GLSM Ratio (Fed/Fasted) ([4]; high-fat breakfast): 75.02%; AUCinf % GLSM Ratio (Fed/Fasted) ([4]; light breakfast): 124.72%; AUClast % GLSM Ratio (Fed/Fasted) ([4]; light breakfast): 124.84%; Cmax % GLSM Ratio (Fed/Fasted) ([4]; light breakfast): 134.89%; effect of food on absorption and bioavailability ([4]; formulated as a solid dispersion): slowed the rate of absorption; decrease in AUC with food [4, 5]: 14%; decrease in Cmax with food [4, 5]: 25%; Cmax [4, 6]: 486 ng/mL; AUC(0-inf) [4, 6]: 3790 ng·h/mL; AUC(0-t) [4, 6]: 3750 ng·h/mL; Cmax [4, 7]: 582 ng/mL; AUC(0-inf) [4, 7]: 5470 ng·h/mL; AUC(0-t) [4, 7]: 5390 ng·h/mL; Cmax ([4]; 100 mg fed, high-fat breakfast): 364 ng/mL; AUC(0-inf) ([4]; 100 mg fed, high-fat breakfast): 3270 ng·h/mL; AUC(0-t) ([4]; 100 mg fed, high-fat breakfast): 3220 ng·h/mL; Cmax ([4]; 100 mg fed, light breakfast): 785 ng/mL; AUC(0-inf) ([4]; 100 mg fed, light breakfast): 6820 ng·h/mL; AUC(0-t) ([4]; 100 mg fed, light breakfast): 6730 ng·h/mL; increase in AUC with food ([4]; light breakfast vs fasted): 25%; increase in Cmax with food ([4]; light breakfast vs fasted): 35%

Source: patent US20150064252A1, “SOLID DISPERSION FORMULATION OF AN ANTIVIRAL COMPOUND” (Gilead Pharmasset LLC, priority 2013, published 2015)
